According to patent US20100137396A1, “TREATMENT OF ESOPHAGEAL HIGH GRADE DYSPLASIA USING PHOTODYNAMIC THERAPY” (Health Research, Inc, priority 2007, published 2010):

Legend:
[1] = system: esophageal high grade dysplasia; assay: Photodynamic therapy trials, response of high grade dysplasia (phase I/II HPPH, phase III PHOTOFRIN); type: in vivo, human; details: for Response After First Treatment, CR (complete ablation of high grade dysplasia): after first PDT treatment, patients with high grade dysplasia; for Response After Second Treatment, expected cure rate / Response After Third Treatment, expected cure rate: calculated from first-treatment rate applied to remaining uncured
Method: The method of the invention includes the steps of: • injecting HPPH in a physiologically compatible medium into a patient having high grade esophageal dysplasia to provide a dose level of 3 through 5 mg/m^2 of body surface area, preferably 3 through 4 mg/m^2 of body surface area. • waiting for a time period of 24 through 60 hours to permit preferential absorption of the HPPH into the high grade dysplasia tissue, and • exposing the esophageal high grade dysplasia tissue to light at a wavelength of about 670±5 nm at an energy of from about 75 to about 200 Joules/cm, preferably 75 to about 150 Joules/cm.
Injection of the HHPH is preferably accomplished intravenously usually over a time period of 0.75 to 3 hours in a physiologically compatible medium. The time period is functionally dependent upon rate of infusion and dose level desired The concentration is preferably 0.5-through 1.5 mg/ml in medium and the medium is preferably 0.1% polysorbate 80, 2% ethyl alcohol and 5% glucose in normal saline.
Exposure is accomplished using a fiber optic carrying laser light emitted by a laser. The laser may be any suitable laser emitting light at the wavelength and energy desired, e.g. a dye or diode laser. Exposure may be adjusted by length of time of exposure and/or adjustment of light intensity.
(§1) Using the above parameters, a phase I/II trial using HPPH and a phase III trial using PHOTOFRIN™, the latter approved by the United States Food and Drug Administration, the following results for response of high grade dysplasia were obtained, with CR being defined as complete ablation of high grade dysplasia.

[2] = cited from earlier work
[3] = system: esophageal high grade dysplasia; details: 2 mg/kg body weight, 630 nm, optimized light exposure; cited from earlier work
[4] = treatment concentration of 2 mg/kg; cited from earlier work
[5] = Normal tissue damage after photodynamic therapy (strictures; erythema, edema and necrosis); type: in vivo, human; details: after first PDT treatment
Method: Nevertheless, PHOTOFRIN™ at an optimized dose level of 2 mg/kg body weight and activation at its preferential light absorption wavelength of 630 nm, and optimized light exposure results in a first treatment complete cure rate of about 32 percent and a two treatment complete cure rate of about 58 percent and a three treatment complete cure rate of about 77 percent. Unfortunately, the treatment also results in significant damage to surrounding normal tissue. Normal tissue damage for PHOTOFRIN™, as measured by percent of strictures at only a single treatment is about 12% and using other reported data concerning PHOTOFRIN™ treatment, is greater than 20 percent based upon toxicity as determined by the presence of erythema, edema and necrosis.
as §1

Substance | Response After First Treatment, CR (complete ablation of high grade dysplasia) [1] [% CR] | Response After Second Treatment, cure rate (observed) ([1]; after second PDT treatment) | Response After Second Treatment, expected cure rate [1] | Response After Third Treatment, cure rate (observed) ([1]; after third PDT treatment) | Response After Third Treatment, expected cure rate [1] | Normal tissue damage as measured by percent of strictures ([2]; at only a single treatment) | Normal tissue damage based upon toxicity as determined by the presence of erythema, edema and necrosis ([2]; other reported data concerning PHOTOFRIN treatment) | first treatment complete cure rate [3] | three treatment complete cure rate [3] | two treatment complete cure rate [3] | phototoxicity [4] | First Treatment Normal Tissue Damage, strictures [5] [% strictures] | effectiveness against high grade dysplasia and side effects compared with PHOTOFRIN ([1]; 3 to 5 mg/m^2 of body surface area, light at 670±5 nm)
porfimer sodium [PHOTOFRIN ™] | 32 | 58% cure rate (observed) | 54% expected cure rate (based upon | 77% cure rate (observed) | 71% expected cure rate (based upon | about 12% | greater than 20% | about 32% | about 77% | about 58% | can cause serious phototoxicity | 12 | –
3-(1-hexyloxy) ethyl-derivative of pyropheophorbide-a [HPPH] | 49 | – | 74% expected cure rate | – | 87% expected cure rate (based | – | – | – | – | – | – | 3 | more effective against high grade dysplasia with fewer side effects than PHOTOFRIN™
